Assay results from US20020077329A1, “EP4 receptor inhibitors to treat rheumatoid arthritis” (priority 2000, published 2002).
Marks after values point to notes of the source that are not given here.

Legend:
[1] = tested on: rats with adjuvant-induced arthritis; test: Paw edema of adjuvant arthritis (hindpaw volume, hydroplethysmometer); type: in vivo, male, Sprague-Dawley rats; conditions: for % inhibition contralateral paw / % inhibition ipsilateral paw: paw edema on day 14, perorally day 0 to day 14, compound A and B 60 mg/kg bid, piroxicam 3 mg/kg qd, rofecoxib 1.5 mg/kg bid, n=8
Protocol: (§1) Arthritis was induced in male, Sprague-Dawley rats (115-145 g, Japan SLC Inc., Shizuoka, Japan) on Day 0 by an injection of 300 μg of M. Tuberculosis H37 RA (Difco Laboratories Inc., Detroit, Mich.) in 100 μl of liquid paraffin (Wako Pure Chemical Industries, Ltd., Osaka, Japan) into the right hind footpad (Neuroscience 78: 843-850, 1997) on Day 0.
(§2) EP4 antagonists included within Formula I as described above (compound A and B, 60 mg/kg, bid), piroxicam (Feldene®, 3 mg/kg, qd), rofecoxib (Vioxx®, 1.5 mg/kg, bid), and control vehicle were each suspended in 0.1% methylcellulose (MC) and perorally administered separately in five groups of rats from day 0 to day 14 in a volume of 1 ml per 100 g body weight.
Hindpaw volume was measured by an hydroplethysmometer (Ugo Basile, Comerio, Italy) on Day 0, immediately before adjuvant injection, and on Days 1, 4, 7, 11 and 14 after injection. Paw swelling (%) was calculated as follows (Agents and Actions 34: 63-65, 1991):
swelling (%)={Day X volume (ml)−Day 0 volume (ml)}/Day 0 volume (ml)×100.

[2] = tested on: rats with adjuvant-induced arthritis; test: Arthritic score in adjuvant arthritis (sum of the score for all four limbs); type: in vivo, male, Sprague-Dawley rats; conditions: day 14; perorally day 0 to day 14; compound A and B 60 mg/kg bid, piroxicam 3 mg/kg qd, rofecoxib 1.5 mg/kg bid; n=8
Protocol: as §1, §2
On Day 14, the arthritic score of each paw was evaluated as described below. The total arthritic score for each animal was the sum of the score for all four limbs (Agents and Actions 27: 356-358, 1989). […]

CCc1nc2cc(C(F)(F)F)c(Cl)cc2n1-c1ccc(CCN(C(=O)O)S(=O)(=O)c2ccc(C)cn2)cc1.Cl
melting point: 205.8 °C

CN1C(C(=O)Nc2ccccn2)=C(O)c2ccccc2S1(=O)=O [Piroxicam, piroxicam]
% inhibition contralateral paw [1]: 96.2* % | % inhibition ipsilateral paw [1]: 50.8** % | % inhibition (arthritic score) [2]: 26.7** %

CCc1nc2cc(C(F)(F)F)c(Cl)cc2n1-c1ccc(C[C@H](C)OC(=O)NS(=O)(=O)c2ccc(C)cc2)cc1 [Example 250, (1S)-2-{4-[6-chloro-2-ethyl-5-(trifluoromethyl)-1H-benzimidazol-1-yl]phenyl}-1-methylethyl (4-methylphenyl)sulfonylcarbamate]
melting point: 200.3 °C

CS(=O)(=O)c1ccc(C2=C(c3ccccc3)C(=O)OC2)cc1 [Rofecoxib, rofecoxib]
edema formation in the ipsilateral paws (result in words) ([1]; during the entire experimental period (day 0 to day 14), versus disease group untreated with compound): weaker activity | % inhibition contralateral paw [1]: 25.6% | % inhibition ipsilateral paw [1]: 37.1* % | % inhibition (arthritic score) [2]: 18.5** %

CCc1nc2cc(C(C)=O)ccc2n1-c1ccc(CCOC(=O)NS(=O)(=O)c2ccc(C)cc2)cc1 [Example 332, 2-[4-(5-acetyl-2-ethyl-1H-benzimidazol-1-yl)phenyl]ethyl (4-methylphenyl)sulfonylcarbamate]
melting point: 188 to 190 °C

CCc1nc2c(C)nc(C)nc2n1-c1ccc(CCOC(=O)NS(=O)(=O)c2ccc(C)cc2)cc1 [Example 228, 2-[4-(8-ethyl-2,6-dimethyl-9H-purin-9-yl)phenyl]ethyl (4-methylphenyl)sulfonylcarbamate]
melting point: 162 °C

CCc1nc2c(C)nc(C)cc2n1-c1ccc(CCOC(=O)NS(=O)(=O)c2ccc(C)cc2)cc1 [Example 227, 2-[4-(2-ethyl-4,6-dimethyl-1H-imidazo[4,5-c]pyridin-1-yl)phenyl]ethyl (4-methylphenyl)sulfonylcarbamate]
melting point: 158 °C
